{"source": "patent US10112945B2", "about": "“Fused quinoline compunds as PI3K, mTOR inhibitors” (ADVENCHEN PHARMACEUTICALS, NANJING LTD., priority 2014, dated 2018)", "key": {"[1]": {"target": "T1, mTor (Homo sapiens, UniProt P42345)", "T1 construct": "purchased Millipore/Merck KGA", "assay": "In vitro kinase inhibition, mTor (Millipore/Merck kinases panel screening)", "format": "biochemical", "settings": "compound at 0.03 μM", "protocol": "(§1) In vitro kinase inhibition activities included Pi3k and mTor activities can be tested with Millipore/Merck KGA of Europe in their kinases panel screening. Animal antitumor activity testing can be conducted by various cancer xenograft models for a compound of formula I.\n(§2) The following compounds or a pharmaceutically acceptable salt thereof, but not limited, can also be prepared similarly according to the methods described in Scheme I-Scheme II. They are also tested for the inhibitions on mTor or pi3k kinases, or tumor cell lines."}, "[2]": {"test_system": "pi3K", "assay": "In vitro kinase inhibition, pi3K (Millipore/Merck kinases panel screening)", "format": "biochemical", "settings": "compound at 0.03 μM", "protocol": "as §1, §2"}}}
{"molecule": "Nc1ccc(-c2ccc3ncc4c(c3c2)n(-c2ccc(Cl)c(C(F)(F)F)c2)c2nncn42)cn1", "note": "[5-pyridin-2-amine, 4-Cl, H, 5-{16-[4-chloro-3-(trifluoromethyl)phenyl]-8,11,13,14,16-pentaazatetracyclo-[8.6.0.0^2,7.0^11,15]hexadeca-1(10),2,4,6,8,12,14-heptaen-4-yl}pyridin-2-amine]", "values": [{"measurement": "activity at 0.03 µM", "setting": "[1]; scaffold drawing 7 series", "value": -19, "unit": "%"}, {"measurement": "pi3K % activity @0.03 μM", "setting": "[2]; scaffold drawing 7 series", "value": 38, "unit": "%"}]}
{"molecule": "FC(F)(F)c1cc(-n2c3c4cc(-c5cnc6ccccc6c5)ccc4ncc3n3cnnc23)ccc1Cl", "note": "[3-quinoline, 4-Cl, H, 16-[4-chloro-3-(trifluoromethyl)phenyl]-4-(quinolin-3-yl)-8,11,13,14,16-pentaazatetracyclo-[8.6.0.0^2,7.0^11,15]hexadeca-1(10),2,4,6,8,12,14-heptaene]", "values": [{"measurement": "activity at 0.03 µM", "setting": "[1]; scaffold drawing 7 series", "value": 11, "unit": "%"}, {"measurement": "pi3K % activity @0.03 μM", "setting": "[2]; scaffold drawing 7 series", "value": 84, "unit": "%"}]}
{"molecule": "COCCNc1ccc(-c2ccc3ncc4c(c3c2)n(-c2ccc(Cl)c(C(F)(F)F)c2)c2nncn42)cn1", "note": "[5-{16-[4-chloro-3-(trifluoromethyl)phenyl]-8,11,13,14,16-pentaazatetracyclo[8.6.0.0^2,7.0^11,15]-hexadeca-1(10),2,4,6,8,12,14-heptaen-4-yl}-N-(2-methoxyethyl)pyridin-2-amine]", "values": [{"measurement": "activity at 0.03 µM", "setting": "[1]; scaffold drawing 7 series", "value": -5, "unit": "%"}, {"measurement": "pi3K % activity @0.03 μM", "setting": "[2]; scaffold drawing 7 series", "value": 87, "unit": "%"}]}
{"molecule": "COCCNc1ccc(-c2ccc3ncc4c(c3c2)n(-c2cccc(C(F)(F)F)c2)c2nncn42)cn1", "note": "[N-(2-methoxyethyl)-5-{16-[3-(trifluoromethyl)phenyl]-8,11,13,14,16-pentaazatetracyclo-[8.6.0.0^2,7.0^11,15]-hexadeca-1(10),2,4,6,8,12,14-heptaen-4-yl}pyridin-2-amine]", "values": [{"measurement": "activity at 0.03 µM", "setting": "[1]; scaffold drawing 7 series", "value": -3, "unit": "%"}, {"measurement": "pi3K % activity @0.03 μM", "setting": "[2]; scaffold drawing 7 series", "value": 92, "unit": "%"}]}
{"molecule": "NCC(=O)Nc1ccc(-c2ccc3ncc4c(c3c2)n(-c2ccc(Cl)c(C(F)(F)F)c2)c2nncn42)cn1", "note": "[2-amino-N-(5-{16-[4-chloro-3-(trifluoromethyl)phenyl]-8,11,13,14,16-pentaazatetracyclo-[8.6.0.0^2,7.0^11,15]hexadeca-1(10),2,4,6,8,12,14-heptaen-4-yl}pyridin-2-yl)acetamide]", "values": [{"measurement": "activity at 0.03 µM", "setting": "[1]; scaffold drawing 7 series", "value": 9, "unit": "%"}, {"measurement": "pi3K % activity @0.03 μM", "setting": "[2]; scaffold drawing 7 series", "value": 83, "unit": "%"}]}
{"molecule": "O=C(CN1CCOCC1)Nc1ccc(-c2ccc3ncc4c(c3c2)n(-c2cccc(C(F)(F)F)c2)c2nncn42)cn1", "note": "[2-(morpholin-4-yl)-N-(5-{16-[3-(trifluoromethyl)phenyl]-8,11,13,14,16-pentaazatetracyclo-[8.6.0.0^2,7.0^11,15]hexadeca-1(10),2,4,6,8,12,14-heptaen-4-yl}pyridin-2-yl)acetamide]", "values": [{"measurement": "activity at 0.03 µM", "setting": "[1]; scaffold drawing 7 series", "value": 31, "unit": "%"}, {"measurement": "pi3K % activity @0.03 μM", "setting": "[2]; scaffold drawing 7 series", "value": 95, "unit": "%"}]}
{"molecule": "FC(F)(F)c1ccc(-n2c3c4cc(-c5cnc6ccccc6c5)ccc4ncc3n3cnnc23)cc1", "note": "[3-quinoline, H, H, 4-(quinolin-3yl)-16-[4-(trifluoromethyl)phenyl]-8,11,13,14,16-pentaazatetracyclo-[8.6.0.0^2,7.0^11,15]hexadeca-1(10),2,4,6,8,12,14-heptaene]", "values": [{"measurement": "activity at 0.03 µM", "setting": "[1]; scaffold drawing 34 series", "value": 68, "unit": "%"}, {"measurement": "pi3K % activity @0.03 μM", "setting": "[2]; scaffold drawing 34 series", "value": 99, "unit": "%"}]}
{"molecule": "N-[2-(morpholin-4-yl)ethyl]-5-{16-[3-(trifluoromethyl)phenyl]-8,11,13,14,16-pentaazatetra-cyclo[8.6.0.0^2,7.0^11,15]hexadeca-1(10),2,4,6,8,12,14-heptaen-4-yl}pyridin-2-amine", "values": [{"measurement": "mTor % activity @0.03 μM", "setting": "[1]; scaffold drawing 7 series", "value": 43, "unit": "%"}, {"measurement": "pi3K % activity @0.03 μM", "setting": "[2]; scaffold drawing 7 series", "value": 94, "unit": "%"}]}
